This note sets out measurements from patent US11613522B2, “Herbicidally active 3-phenylisoxazoline-5-carboxamides of tetrahydro- and dihydrofurancarboxamides” (BAYER AKTIENGESELLSCHAFT, priority 2017, dated 2023).

Molecules are shown by their SMILES.

Holding throughout (assay type): in vivo
The test system of assay [1] is Alopecurus myosuroides. Put plainly: Pre-emergence herbicidal activity against ALOMY. Particulars: Alopecurus myosuroides, 504 h, dosage 80 g/ha, scored visually after about 3 weeks vs untreated controls. Put shortly:
(§1)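 Seeds sown in pots and covered with soil; compounds formulated as WP or EC were sprayed onto the soil surface as aqueous suspension/emulsion with 0.5% additive at 600 l/ha water. Greenhouse growth; visual percent activity versus untreated controls after about 3 weeks (100% = plants dead, 0% = like control).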

Assay [2] concerns Avena fatua. Put plainly: Pre-emergence herbicidal activity against AVEFA. The following applies: Avena fatua, 504 h, dosage 80 g/ha, scored visually after about 3 weeks vs untreated controls, read-out: Pre-emergence herbicidal activity in % against AVEVA (AVEFA). Summed up: as §1
Assay [3] deals with Echinochloa crus-galli. Put plainly: Pre-emergence herbicidal activity against ECHCG. The following applies: Echinochloa crus-galli, 504 h, dosage 80 g/ha, scored visually after about 3 weeks vs untreated controls. Put shortly: as §1
Assay [4] deals with Lolium rigidum. The assay can be described thus: Pre-emergence herbicidal activity against LOLRI. Particulars: Lolium rigidum, 504 h, dosage 80 g/ha, scored visually after about 3 weeks vs untreated controls. Summed up: as §1
For assay [5], the system named is Setaria viridis. Put plainly: Pre-emergence herbicidal activity against SETVI. Particulars: Setaria viridis, 504 h, dosage 80 g/ha, scored visually after about 3 weeks vs untreated controls. Summed up:
as §1

The test system of assay [6] is Amaranthus retroflexus. The assay can be described thus: Pre-emergence herbicidal activity against AMARE. Particulars: Amaranthus retroflexus, 504 h, dosage 80 g/ha, scored visually after about 3 weeks vs untreated controls. Put shortly:
as §1

The test system of assay [7] is Pharbitis purpurea. The assay can be described thus: Pre-emergence herbicidal activity against PHBPU. The following applies: dosage 80 g/ha, scored visually after about 3 weeks vs untreated controls. From the text: (§2) 1. Pre-emergence herbicidal action against harmful plants and crop plant compatibility Seeds of monocotyledonous and dicotyledonous weed plants and crop plants are placed in plastic or wood fiber pots and covered with soil. The compounds of the invention, formulated in the form of wettable powders (WP) or as emulsion concentrates (EC), are then applied onto the surface of the covering soil as aqueous suspension or emulsion with addition of 0.5% additive at a water application rate of 600 l/ha (converted). After the treatment, the pots are placed in a greenhouse and kept under good growth conditions for the trial plants. After about 3 weeks, the effect of the preparations is scored visually in comparison with untreated controls as percentages. For example, 100% activity=the plants have died, 0% activity=like control plants. [table]

The test system of assay [8] is Polygonum convolvulus. The assay can be described thus: Pre-emergence herbicidal activity against POLCO. Particulars: Fallopia convolvulus, 504 h, dosage 80 g/ha, scored visually after about 3 weeks vs untreated controls. Summed up: as §1
In assay [9] the test system is Stellaria media. Put plainly: Pre-emergence herbicidal activity against STEME. Particulars: Stellaria media, 504 h, dosage 80 g/ha, scored visually after about 3 weeks vs untreated controls. Put shortly: as §1
The subject of assay [10] is Viola tricolor. The assay can be described thus: Pre-emergence herbicidal activity against VIOTR. Particulars: Viola tricolor, 504 h, dosage 80 g/ha, scored visually after about 3 weeks vs untreated controls. Summed up: as §1
Assay [11] deals with Veronica persica. The assay can be described thus: Pre-emergence herbicidal activity against VERPE. Particulars: Veronica persica, 504 h, dosage 80 g/ha. Summed up:
as §1

In assay [12] the test system is Hordeum murinum. The assay can be described thus: Pre-emergence herbicidal activity against HORMU. The following applies: Hordeum murinum, 504 h, dosage 80 g/ha. Put shortly:
as §1

For assay [13], the system named is Alopecurus myosuroides. Put plainly: Post-emergence herbicidal activity against ALOMY. Particulars: Alopecurus myosuroides, 504 h, dosage 320 g/ha, rated visually after about 3 weeks. Summed up: (§3)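 Post-emergence foliar spray of wettable-powder or emulsion-concentrate formulations (0.5% additive, 600 l/ha water) onto one-leaf-stage greenhouse plants. Percent activity scored by eye after ~3 weeks against untreated plants; 0% equals control growth, 100% equals plant death.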

Assay [14] deals with Avena fatua. The assay can be described thus: Post-emergence herbicidal activity against AVEFA. The following applies: Avena fatua, 504 h, dosage 320 g/ha, rated visually after about 3 weeks. Put shortly: as §3
Assay [15] has as its system Echinochloa crus-galli. The assay can be described thus: Post-emergence herbicidal activity against ECHCG. The following applies: Echinochloa crus-galli, 504 h, dosage 320 g/ha, rated visually after about 3 weeks. Put shortly: as §3
Assay [16] has as its system Lolium rigidum. The assay can be described thus: Post-emergence herbicidal activity against LOLRI. The following applies: Lolium rigidum, 504 h, dosage 320 g/ha, rated visually after about 3 weeks. Put shortly: as §3
For assay [17], the system named is Setaria viridis. The assay can be described thus: Post-emergence herbicidal activity against SETVI. The following applies: Setaria viridis, 504 h, dosage 320 g/ha, rated visually after about 3 weeks. Put shortly: as §3
Assay [18] concerns Abutilon theophrasti. The assay can be described thus: Post-emergence herbicidal activity against ABUTH. Particulars: Abutilon theophrasti, 504 h, dosage 320 g/ha, rated visually after about 3 weeks. Summed up: as §3
Assay [19] relates to Amaranthus retroflexus. The assay can be described thus: Post-emergence herbicidal activity against AMARE. The following applies: Amaranthus retroflexus, 504 h, dosage 320 g/ha, rated visually after about 3 weeks. Summed up:
as §3

Assay [20] has as its system Pharbitis purpurea. Put plainly: Post-emergence herbicidal activity against PHBPU. Particulars: Ipomoea purpurea, 504 h, dosage 320 g/ha, rated visually after about 3 weeks. Summed up:
as §3

Assay [21] concerns Polygonum convolvulus. The assay can be described thus: Post-emergence herbicidal activity against POLCO. The following applies: Fallopia convolvulus, 504 h, dosage 320 g/ha, rated visually after about 3 weeks. Put shortly:
as §3

The subject of assay [22] is Stellaria media. Put plainly: Post-emergence herbicidal activity against STEME. The following applies: Stellaria media, 504 h, dosage 320 g/ha, rated visually after about 3 weeks. Put shortly:
as §3

Assay [23] has as its system Viola tricolor. The assay can be described thus: Post-emergence herbicidal activity against VIOTR. The following applies: Viola tricolor, 504 h, dosage 320 g/ha, rated visually after about 3 weeks. Put shortly: as §3
Assay [24] relates to Veronica persica. Put plainly: Post-emergence herbicidal activity against VERPE. The following applies: Veronica persica, 504 h, dosage 320 g/ha, rated visually after about 3 weeks. Put shortly:
as §3

The test system of assay [25] is Hordeum murinum. Put plainly: Post-emergence herbicidal activity against HORMU. The following applies: Hordeum murinum, 504 h, dosage 320 g/ha, rated visually after about 3 weeks. Summed up: as §3
The nature of assay [26]: Pre-emergence herbicidal action against harmful plants (summary of the tables). Particulars: 504 h, application rate of 0.08 kg of active substance or less per hectare, read-out: herbicidal action, pre-emergence treatment (very good activity). Put shortly: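 Seeds of weeds and crops were covered with soil, then WP or EC formulations were sprayed onto the soil surface pre-emergence at 600 l/ha water with 0.5% additive. Plants were grown in a greenhouse for about 3 weeks, and damage was scored visually as a percentage versus untreated controls (100% = plants dead).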

The subject of assay [27] is Abutilon theophrasti. The assay can be described thus: Pre-emergence herbicidal activity against ABUTH. The following applies: dosage 80 g/ha, scored visually after about 3 weeks vs untreated controls.
From the text: as §2

For `C=C[C@]1(C(=O)N[C@@H]2CO[C@H](C(=O)NC3CC3)C2)CC(c2cc(F)cc(F)c2)=NO1` (mixture of isomers) [Example I-18, (5S)—N-[cis-5-(cyclopropylcarbamoyl)tetrahydrofuran-3-yl]-3-(3,5-difluorophenyl)-5-vinyl-4H-isoxazole-5-carboxamide], the pest or weed control at 80 g/ha in assay [1] turned out to be 100%; in assay [2] it was 90%; in assay [3], 90%; in assay [4] it was 100%; in [5], 100%; in assay [6] it was 100%. The pest or weed control at 80 g/ha was 100% in assay [8]; 100% in [9]; 100% in assay [10]; 90% in assay [11]; 100% in assay [12]; 80 to 100% in assay [26]. Further, the “Pre-emergence herbicidal activity in % against PHBPU” value in assay [7] was 90%. The pest or weed control at 320 g/ha in [13], in assay [14], in assay [15], in [16], in assay [17] and in assay [18] was 90% throughout. For the same molecule, the pest or weed control at 320 g/ha in [19] is 90%; in [20], 90%; in assay [21], 90%; in assay [22], 90%; in assay [23], 80%; in assay [24] it was 80%. This molecule registered a pest or weed control at 320 g/ha in assay [25] of 90%.
On to `CNC(=O)C1COCC1NC(=O)C1(C)CC(c2cc(F)cc(F)c2)=NO1` (stereo not drawn) [Example I-07, 3-(3,5-difluorophenyl)-5-methyl-N-[4-(methylcarbamoyl)tetrahydrofuran-3-yl]-4H-isoxazole-5-carboxamide], for which the pest or weed control at 80 g/ha in [3] is 100%. Further, in [27], the “Pre-emergence herbicidal activity in % against ABUTH” value turned out to be 100%. The pest or weed control at 320 g/ha in [20] and in [21] was 80% in each case.
In the case of `C=C[C@]1(C(=O)N[C@@H]2CO[C@H](C(=O)NOC(C)C)C2)CC(c2cc(F)cc(F)c2)=NO1` (mixture of isomers) [Example I-13, (5S)-3-(3,5-difluorophenyl)-N-[cis-5-(isopropoxycarbamoyl)tetrahydrofuran-3-yl]-5-vinyl-4H-isoxazole-5-carboxamide], the pest or weed control at 80 g/ha in assay [1], in [2], in assay [3], in assay [4], in assay [5] and in assay [6] was 100% throughout. Besides, the pest or weed control at 80 g/ha is 100% in assay [8]; 100% in assay [9]; 100% in assay [10]; 90% in assay [11]; 100% in [12]; 80 to 100% in assay [26]. Also, in assay [7], the “Pre-emergence herbicidal activity in % against PHBPU” value is listed as 90%. The pest or weed control at 320 g/ha worked out at 90% in assay [13]; 90% in [14]; 90% in [15]; 90% in assay [16]; 90% in assay [17]; 80% in assay [18]. Further, the pest or weed control at 320 g/ha in assay [19] worked out at 80%; in assay [20], 80%; in assay [21], 80%; in [22] it was 90%; in assay [23], 80%; in assay [24], 80%. Moreover, the pest or weed control at 320 g/ha in [25] was 90%.
Regarding `C=C[C@]1(C(=O)N[C@@H]2CO[C@H](C(=O)NOC)C2)CC(c2cc(F)cc(F)c2)=NO1` (mixture of isomers) [Example I-11, (5S)-3-(3,5-difluorophenyl)-N-[cis-5-(methoxycarbamoyl)tetrahydrofuran-3-yl]-5-vinyl-4H-isoxazole-5-carboxamide], the pest or weed control at 80 g/ha in [1], in assay [2], in assay [3], in assay [4], in assay [5] and in [6] was 100% in each case. The pest or weed control at 80 g/ha in [8] was 100%; in [9], 100%; in assay [10], 100%; in assay [11], 90%; in [12] it was 90%; in assay [26] it was 80 to 100%. Also, in [27], the “Pre-emergence herbicidal activity in % against ABUTH” value is 100%. In [7], the “Pre-emergence herbicidal activity in % against PHBPU” value came out at 90%. The pest or weed control at 320 g/ha was found to be 90% in assay [13]; 90% in assay [14]; 90% in assay [15]; 90% in [16]; 90% in assay [17]; 80% in [18]. The pest or weed control at 320 g/ha in [20] is 80%; in [21], 80%; in assay [22] it was 90%; in assay [23], 80%; in assay [24] it was 80%.
